Where a name gives a salt, the structure may show the parent alone.
Target: T1, human SPNS2 (Homo sapiens, UniProt Q8IVW8)
T1 construct: expressed in transfected cells; host or cells: Saccharomyces cerevisiae strain with forced expression of a mammalian SphK and human SPNS2
T1 sequence (Q8IVW8 1-549): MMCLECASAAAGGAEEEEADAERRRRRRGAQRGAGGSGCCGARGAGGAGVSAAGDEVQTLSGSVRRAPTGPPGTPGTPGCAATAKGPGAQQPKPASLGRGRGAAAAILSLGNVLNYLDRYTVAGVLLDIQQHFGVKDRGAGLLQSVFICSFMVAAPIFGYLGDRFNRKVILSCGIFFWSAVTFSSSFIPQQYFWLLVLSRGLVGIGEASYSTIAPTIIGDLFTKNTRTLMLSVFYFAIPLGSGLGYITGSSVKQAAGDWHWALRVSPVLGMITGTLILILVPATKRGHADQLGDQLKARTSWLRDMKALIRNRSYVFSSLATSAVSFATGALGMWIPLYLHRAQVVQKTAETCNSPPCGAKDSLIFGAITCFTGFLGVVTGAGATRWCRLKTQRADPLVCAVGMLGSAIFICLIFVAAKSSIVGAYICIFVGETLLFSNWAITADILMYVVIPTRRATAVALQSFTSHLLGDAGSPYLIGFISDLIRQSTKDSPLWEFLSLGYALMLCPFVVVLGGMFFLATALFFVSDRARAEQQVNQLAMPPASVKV
Assay: S1P transporter assay: growth of S. cerevisiae strain with forced expression of a mammalian SphK and human SPNS2
Assay type: cell-based
Settings: in vitro inhibition of SPNS2; growth of S. cerevisiae strain expressing mammalian SphK and human SPNS2; compounds as their pharmaceutical salts
Text: Transporter assays are vectorial and, therefore, require measurement of the transported analyte in different compartments. The assay of S1P transporters is problematic because S1P is exported, but not imported, by SPNS2, which obviates measuring uptake of mass- or radio-labeled S1P into transporter-expressing cells.
To assay for SPNS2 inhibitor hits, we took advantage of the growth inhibitory effects of excessive levels of phosphorylated Long Chain Base (phospho-LCB) levels on the budding yeast, S. cerevisiae (Kharel Y, et al. Saccharomyces cerevisiae as a platform for assessing sphingolipid lipid kinase inhibitors. PLoS One 13, e0192179 (2018) PMC5908134). Yeast lack the desaturase that converts dihydroceramide to ceramide and, therefore, have neither sphingosine nor S1P. Rather, yeast have the reduced form, dihydrosphingosine, and the 4-hydroxyl analog, phytosphingosine and their respective phosphates. Like all eukaryotes, the yeast synthesizes (via LCB kinases (SphKs)) and degrades (via phospho-LCB lyase and phosphatase) phospho-LCBs, (dhS1P, phytoS1P). Yeast lack phospho-LCB transporters such as SPNS2, which are found only in vertebrates. To assess inhibition of SPNS2 in vitro, we used a strain of S. cerevisiae wherein expression of a mammalian SphK and human SPNS2 were forced. SPNS2 inhibitors decrease the growth of this strain. Table 2 below presents in vitro inhibition data against SPNS2 for exemplary compounds, presented here as their pharmaceutical salts, of the disclosure (A≤2 μM, B>2 μM).

CCCCCCCCCc1ccc(-c2noc([C@@H]3CCCN(C(=N)N)C3)n2)cc1 [Compound 7yb, (R)-3-(3-(4-nonylphenyl)-1,2,4-oxadiazol-5-yl)piperidine-1-carboximidamide hydrochloride]
IC50: ≤ 2 µM

N=C(N)N1CC[C@@H](c2nc(-c3ccc(N4CCOCC4)nc3)no2)C1 [Compound 15d, (R)-3-(3-(6-morpholinopyridin-3-yl)-1,2,4-oxadiazol-5-yl)pyrrolidine-1-carboximidamide hydrochloride]
IC50: > 2 µM

CCCCCCCCCCc1ccc(-c2noc(C[C@@H]3CCCNC3)n2)cc1 [Compound 5q, (S)-3-(4-decylphenyl)-5-(piperidin-3-ylmethyl)-1,2,4-oxadiazole 2,2,2-trifluoroacetate]
IC50: ≤ 2 µM

CCCCCCCCOc1ccc(-c2noc(C3CN(C(=N)N)C3)n2)cc1C(F)(F)F [Compound 23a, 3-(3-(4-(octyloxy)-3-(trifluoromethyl)phenyl)-1,2,4-oxadiazol-5-yl)azetidine-1-carboximidamide hydrochloride]
IC50: ≤ 2 µM

CCCCCCCCCCOc1ccc(-c2noc([C@@H]3CCCN(C(=N)N)C3)n2)cc1C(F)(F)F [Compound 23f, (R)-3-(3-(4-(decyloxy)-3-(trifluoromethyl)phenyl)-1,2,4-oxadiazol-5-yl)piperidine-1-carboximidamide hydrochloride]
IC50: ≤ 2 µM

CCCCCCCCCCc1ccc(-c2noc(C[C@@H]3CCNC3)n2)cc1 [Compound 5p, (S)-3-(4-decylphenyl)-5-(pyrrolidin-3-ylmethyl)-1,2,4-oxadiazole 2,2,2-trifluoroacetate]
IC50: ≤ 2 µM

CC(C)(C)c1cccc(Nc2ccc(-c3noc([C@@H]4CCNC4)n3)cn2)c1 [Compound 13g, (R)—N-(3-(tert-butyl)phenyl)-5-(5-(pyrrolidin-3-yl)-1,2,4-oxadiazol-3-yl)pyridin-2-amine hydrochloride]
IC50: > 2 µM

N=C(N)N1CC[C@@H](c2nc(-c3ccc(Nc4ccccc4Cl)nc3)no2)C1 [Compound 15e, (R)-3-(3-(6-((2-chlorophenyl)amino)pyridin-3-yl)-1,2,4-oxadiazol-5-yl)pyrrolidine-1-carboximidamide hydrochloride]
IC50: > 2 µM

Brc1ccc(Br)c(Nc2ccc(-c3noc([C@@H]4CCNC4)n3)cn2)c1 [Compound 13f, (R)—N-(2,5-dibromophenyl)-5-(5-(pyrrolidin-3-yl)-1,2,4-oxadiazol-3-yl)pyridin-2-amine hydrochloride]
IC50: > 2 µM

CCCCCCCCNC(=O)c1ccc(-c2noc([C@@H]3CCNC3)n2)cc1 [Compound 38p, (R)—N-octyl-4-(5-(pyrrolidin-3-yl)-1,2,4-oxadiazol-3-yl)benzamide hydrochloride]
IC50: > 2 µM

CCCCCCCCCCc1ccc(-c2noc(CC3CN(C(=N)N)C3)n2)cc1 [Compound 7i]
IC50: ≤ 2 µM

C/C(=N\OCc1cc(C(F)(F)F)cc(C(F)(F)F)c1)c1ccc(-c2noc([C@@H]3CCNC3)n2)cc1 [Compound 38b, (R)-1-(4-(5-(pyrrolidin-3-yl)-1,2,4-oxadiazol-3-yl)phenyl)ethan-1-one O-(3,5-bis(trifluoromethyl)benzyl) oxime hydrochloride]
IC50: ≤ 2 µM

CCCCCCCCCCc1cccc(-c2noc([C@@H]3CCN(C(=N)N)C3)n2)c1 [Compound 7t, (R)-3-(3-(3-decylphenyl)-1,2,4-oxadiazol-5-yl)pyrrolidine-1-carboximidamide hydrochloride]
IC50: > 2 µM

CCCCCCCCCCc1ccc(-c2noc([C@@H]3CCCNC3)n2)cc1C(F)(F)F [Compound 28e, (R)-3-(4-decyl-3-(trifluoromethyl)phenyl)-5-(piperidin-3-yl)-1,2,4-oxadiazole hydrochloride]
IC50: > 2 µM

C/C(=N\OCc1ccc(C(F)(F)F)cc1)c1ccc(-c2noc([C@@H]3CCN(C(=N)N)C3)n2)cc1 [Compound 40c, (R)-3-(3-(4-(1-(((4-(trifluoromethyl)benzyl)oxy)imino)ethyl)phenyl)-1,2,4-oxadiazol-5-yl)pyrrolidine-1-carboximidamide hydrochloride]
IC50: > 2 µM

CCCCCCCCCCc1ccc(-c2noc(C3CN(C(=N)N)C3)n2)cc1 [Compound 7b, 3-(3-(4-decylphenyl)-1,2,4-oxadiazol-5-yl)azetidine-1-carboximidamide hydrochloride]
IC50: ≤ 2 µM

CCCCCCCCCCc1ccc(-c2noc([C@H]3CCCN(C(=N)N)C3)n2)cc1 [Compound 7f, (S)-amino(3-(3-(4-decylphenyl)-1,2,4-oxadiazol-5-yl)piperidin-1-yl)methaniminium chloride]
IC50: ≤ 2 µM

CCCCCCCOc1ccc(-c2noc([C@@H]3CCCNC3)n2)cc1C(F)(F)F [Compound 21c, (R)-3-(4-(heptyloxy)-3-(trifluoromethyl)phenyl)-5-(piperidin-3-yl)-1,2,4-oxadiazole hydrochloride]
IC50: > 2 µM

CCCCCCCCCCc1ccc(-c2noc(C3CN(C(=N)N)C3)n2)cc1C(F)(F)F [Compound 30b, 3-(3-(4-decyl-3-(trifluoromethyl)phenyl)-1,2,4-oxadiazol-5-yl)azetidine-1-carboximidamide hydrochloride]
IC50: ≤ 2 µM

CCCCCCCCCCc1ccc(-c2noc(C[C@H]3CCNC3)n2)cc1 [Compound 5l, (R)-3-(4-decylphenyl)-5-(pyrrolidin-3-ylmethyl)-1,2,4-oxadiazole 2,2,2-trifluoroacetate]
IC50: ≤ 2 µM

N=C(N)N1CC(c2nc(-c3ccc(OCc4ccc(C(F)(F)F)cc4)c(C(F)(F)F)c3)no2)C1 [Compound 23g, 3-(3-(3-(trifluoromethyl)-4-((4-(trifluoromethyl)benzyl)oxy)phenyl)-1,2,4-oxadiazol-5-yl)azetidine-1-carboximidamide hydrochloride]
IC50: > 2 µM

CCCCCCCCc1ccc(-c2noc(C3CN(C(=N)N)C3)n2)cc1 [Compound 7d, 3-(3-(4-octylphenyl)-1,2,4-oxadiazol-5-yl)azetidine-1-carboximidamide hydrochloride]
IC50: > 2 µM

C/C(=N\OCc1cccc(-c2ccccc2)c1)c1ccc(-c2noc([C@@H]3CCN(C(=N)N)C3)n2)cc1 [Compound 40e, (R)-3-(3-(4-(1-(([1,1′-biphenyl]-3-ylmethoxy)imino)ethyl)phenyl)-1,2,4-oxadiazol-5-yl)pyrrolidine-1-carboximidamide hydrochloride]
IC50: ≤ 2 µM

CCCCCCCCNc1ccc(-c2noc([C@@H]3CCN(C(=N)N)C3)n2)cn1 [Compound 15b, (R)-3-(3-(6-(octylamino)pyridin-3-yl)-1,2,4-oxadiazol-5-yl)pyrrolidine-1-carboximidamide hydrochloride]
IC50: > 2 µM

N=C(N)N1CC[C@@H](c2nc(-c3ccc(Nc4cc(Br)ccc4Br)nc3)no2)C1 [Compound 15f, (R)-3-(3-(6-((2,5-dibromophenyl)amino)pyridin-3-yl)-1,2,4-oxadiazol-5-yl)pyrrolidine-1-carboximidamide hydrochloride]
IC50: > 2 µM

CCCCCCCCCCCc1ccc(-c2noc([C@@H]3CCCN(C(=N)N)C3)n2)cc1 [Compound 7ya, (R)-3-(3-(4-undecylphenyl)-1,2,4-oxadiazol-5-yl)piperidine-1-carboximidamide hydrochloride]
IC50: ≤ 2 µM

C/C(=N\OCc1ccc(C(C)(C)C)cc1)c1ccc(-c2noc([C@@H]3CCN(C(=N)N)C3)n2)cc1 [Compound 40k, (R)-3-(3-(4-(1-(((4-(tert-butyl)benzyl)oxy)imino)ethyl)phenyl)-1,2,4-oxadiazol-5-yl)pyrrolidine-1-carboximidamide hydrochloride]
IC50: ≤ 2 µM

CCCCCCCCCCCc1ccc(-c2noc([C@@H]3CCCNC3)n2)cc1C(F)(F)F [Compound 28f, (R)-5-(piperidin-3-yl)-3-(3-(trifluoromethyl)-4-undecylphenyl)-1,2,4-oxadiazole hydrochloride]
IC50: > 2 µM

CCCCCO/N=C(\C)c1ccc(-c2noc([C@@H]3CCNC3)n2)cc1 [Compound 38l, (R)-1-(4-(5-(pyrrolidin-3-yl)-1,2,4-oxadiazol-3-yl)phenyl)ethan-1-one O-pentyl oxime hydrochloride]
IC50: > 2 µM

CCCCCCCCCOc1ccc(-c2noc([C@@H]3CCCN(C(=N)N)C3)n2)cc1C(F)(F)F [Compound 23e, (R)-3-(3-(4-(nonyloxy)-3-(trifluoromethyl)phenyl)-1,2,4-oxadiazol-5-yl)piperidine-1-carboximidamide hydrochloride]
IC50: ≤ 2 µM

From patent US12590083B2, “Inhibitors of spinster homolog 2 (SPNS2) for use in therapy” (University of Virginia Patent Foundation, priority 2019, dated 2026)
